What was measured:
[1] = Pharmacokinetics of neat C2E5 and C2E5 non-aqueous gel, plasma LC/MS/MS (Example 9); type: in vivo, Sprague-Dawley (SD) rats; settings: SD rat plasma; 200 mg/kg
Method: All animal studies were conducted according to a protocol approved by the University of North Carolina at Chapel Hill Institutional Animal Care and Use Committee (IACUC). Ten-week-old adult female Sprague-Dawley (SD) rats weighing from 200 to 300 g were used in these studies (Charles River Labs, Raleigh, N.C.). Food and water were given ad libitum. The animal room was kept at a controlled temperature (23° C.) and light cycle (light exposure from 8 AM to 8 PM). For the duration of the study, the rats were housed in metabolic cages individually with urine and feces collection until euthanasia at 24 h after neat C2E5 or C2E5 gel application.
Neat C2E5 (i.e., only C2E5) at a dose of 200 mg/kg was applied using a 1 mL syringe to the same size area as a positive control. […] The mass of neat C2E5 or C2E5 gel applied was recorded for each animal to permit actual dose determination. […] The animals were observed during the study period and the body weight of the animals was recorded at pre-dose and prior to necropsy.
Acidified plasma samples (100 μL) were first treated with 25 μL of ^13C—C2E5 stable-label internal standard (1000 ng/mL), followed by precipitation with MeCN (400 μL). […] After separation by liquid chromatography, the analytes and internal standard were detected on a triple quadrupole mass spectrometer using heated electrospray ionization (HESI-II) in the positive-ion mode. […]

[2] = pH 7.4; Sueda et al.; cited from earlier work
[3] = log D by partitioning into octanol and water phases; type: physicochemical; settings: pH 6.0, octanol and water
Method: (§1) More than a dozen esters and amide derivatives of DTPA were synthesized. […] C2E5 is an oil with a viscosity of 163 cps at 25° C. […] The density of C2E5 was determined to be 1.119 g/mL. […] The intrinsic partition coefficient (log P) of C2E5 is difficult to measure due to its instability at high pH. Thus, the log D6.0 was determined by measuring the partitioning of C2E5 into octanol and water phases.

[4] = Physical-chemical characterization: viscosity and density; type: physicochemical
Method: as §1
The solvent evaporation method was subsequently used to prepare the C2E5 non-aqueous gel formulations.

[5] = Equilibrium solubility of C2E5 in aqueous media of varying pH; type: physicochemical; settings: aqueous buffer, thermodynamic from solid

Q: What does the source list for `CCOC(=O)CN(CCN(CC(=O)OCC)CC(=O)OCC)CCN(CC(=O)OCC)CC(=O)OCC` [Formulation C2E5, penta-substituted ethyl ester of DTPA]?
A: C2E1 in plasma samples [1]: not detected; solubility of C2E5 [2]: 2.2 mg/mL; logD [3]: 2.2; density [4]: 1.119 g/mL; viscosity ([4]; 25° C.): 163 cps; solubility thermodynamic ([5]; pH 5.7, room temperature): 20.3 mg/mL; solubility thermodynamic ([5]; pH 7.1, room temperature): 3 mg/mL
